From ChEMBL document CHEMBL1201862, “PubChem BioAssay data set” (2004)
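Exposure lasted 48 hours, with cells grown in 96-well plates and compounds tested at five concentrations. Here, GI50 denotes the concentration required for 50% inhibition of growth.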 Activity calls are given as the source filed them. Rule as the data show it: active = GI50 up to about 1.1 µM and inactive = higher.

Experiments:
Test in all cases: growth of human tumour cells (NCI), 48 h
[1] = test system: 786-0
[2] = test system: CAKI-1
[3] = test system: DU-145
[4] = test system: HL-60
[5] = test system: HOP-92
[6] = test system: Hs-578T
[7] = test system: KM12
[8] = test system: M14
[9] = test system: MCF7
[10] = test system: NCI-H23
[11] = test system: NCI-H522
[12] = test system: NCI/ADR-RES
[13] = test system: OVCAR-5
[14] = test system: RXF 393
[15] = test system: SF-295
[16] = test system: SF-539
[17] = test system: SK-OV-3
[18] = test system: U-251
[19] = test system: UO-31
[20] = test system: Malme-3M

| Compound | GI50 [1] | GI50 [2] | GI50 [3] | GI50 [4] | GI50 [5] | GI50 [6] | GI50 [7] | GI50 [8] | GI50 [9] | GI50 [10] | GI50 [11] | GI50 [12] | GI50 [13] | GI50 [14] | GI50 [15] | GI50 [16] | GI50 [17] | GI50 [18] | GI50 [19] | GI50 [20] |
| --- | --- | --- | --- | --- | --- | --- | --- | --- | --- | --- | --- | --- | --- | --- | --- | --- | --- | --- | --- | --- |
| COC(=O)/C(C)=N/N=C(\S)SC | 35.9 µM (inactive) | 35.2 µM (inactive) | 24.3 µM (inactive) | 0.105 µM (active) | > 100 µM (inactive) | 28.8 µM (inactive) | 52.5 µM (inactive) | 23.2 µM (inactive) | 35.4 µM (inactive) | 45.6 µM (inactive) | 22.7 µM (inactive) | 30 µM (inactive) | 80.2 µM (inactive) | 16.7 µM (inactive) | 40.2 µM (inactive) | 82.6 µM (inactive) | > 100 µM (inactive) | 38.5 µM (inactive) | 36.7 µM (inactive) |  |
| CCCCNc1c(CN)cnc2cc(Cl)ccc12 | 16.7 µM (inactive) | 21.1 µM (inactive) | 28.1 µM (inactive) | 0.394 µM (active) | 15.9 µM (inactive) | 17.6 µM (inactive) | 15.5 µM (inactive) | 20 µM (inactive) | 14.5 µM (inactive) | 19.3 µM (inactive) | 18.8 µM (inactive) | 16.2 µM (inactive) | 16.6 µM (inactive) | 14.5 µM (inactive) | 14 µM (inactive) |  | 14.3 µM (inactive) | 16.4 µM (inactive) |  | 19.2 µM (inactive) |
| Cc1cc(-c2[nH]c(C(=O)O)cc2I)on1 | 36.6 µM (inactive) | 93.1 µM (inactive) | > 100 µM (inactive) |  | 9.33 µM (inactive) | 67.9 µM (inactive) | > 100 µM (inactive) | 80 µM (inactive) | > 100 µM (inactive) | 51.2 µM (inactive) | > 100 µM (inactive) | > 100 µM (inactive) | 29.2 µM (inactive) | 24 µM (inactive) | 33.7 µM (inactive) |  | 76 µM (inactive) | 40.9 µM (inactive) | 40.5 µM (inactive) | > 100 µM (inactive) |
| COC(NC(=O)Nc1ccc(C)cc1)(C(F)(F)F)C(F)(F)F | 54.2 µM (inactive) |  | 35.6 µM (inactive) | > 100 µM (inactive) | 33 µM (inactive) | 25 µM (inactive) | 34.7 µM (inactive) | 29.5 µM (inactive) | 41.3 µM (inactive) | 30.1 µM (inactive) | 22 µM (inactive) | 25.9 µM (inactive) | 34.9 µM (inactive) | 23.1 µM (inactive) | 26.5 µM (inactive) | 41.4 µM (inactive) | 26.1 µM (inactive) | 18.1 µM (inactive) | 17.5 µM (inactive) | 36.3 µM (inactive) |
| CCCCOc1ccc(S(=O)(=O)N/C(N)=N/c2ccc(Cl)cc2)cc1 | 14.7 µM (inactive) |  | 17.4 µM (inactive) |  | 10.8 µM (inactive) | 20.1 µM (inactive) | 17.9 µM (inactive) | 18.7 µM (inactive) | 12.4 µM (inactive) | 15.7 µM (inactive) | 10.5 µM (inactive) | 16 µM (inactive) | 17.7 µM (inactive) | 16.1 µM (inactive) | 18.3 µM (inactive) | 20.9 µM (inactive) | 19.1 µM (inactive) | 14.8 µM (inactive) | 14.8 µM (inactive) | 14.6 µM (inactive) |
| C/C=C\C(CC(=O)NCCC1CN(C(=O)OCc2ccccc2)c2ccccc21)CC(=O)OC (stereo not drawn) | > 100 µM (inactive) | > 100 µM (inactive) | > 100 µM (inactive) |  | 72.1 µM (inactive) | > 100 µM (inactive) | > 100 µM (inactive) | > 100 µM (inactive) | > 100 µM (inactive) | > 100 µM (inactive) | > 100 µM (inactive) | > 100 µM (inactive) | > 100 µM (inactive) | > 100 µM (inactive) | > 100 µM (inactive) |  | > 100 µM (inactive) | > 100 µM (inactive) | > 100 µM (inactive) | > 100 µM (inactive) |
| CC(=O)N(CN1C(=O)CCC1C(=O)O)c1cccc(O)c1 (stereo not drawn) | > 100 µM (inactive) | > 100 µM (inactive) | > 100 µM (inactive) | > 100 µM (inactive) | > 100 µM (inactive) | > 100 µM (inactive) | > 100 µM (inactive) | > 100 µM (inactive) | > 100 µM (inactive) | > 100 µM (inactive) | > 100 µM (inactive) | > 100 µM (inactive) | > 100 µM (inactive) |  | > 100 µM (inactive) | > 100 µM (inactive) | > 100 µM (inactive) | > 100 µM (inactive) | > 100 µM (inactive) | > 100 µM (inactive) |
| Cc1ccc(C(=O)OC(C)C)cc1/N=N/N(C)C | > 100 µM (inactive) | 83 µM (inactive) | > 100 µM (inactive) | 39.8 µM (inactive) | > 93.3 µM (inactive) | > 100 µM (inactive) | > 84.5 µM (inactive) | > 100 µM (inactive) | > 100 µM (inactive) | 45.3 µM (inactive) | 31.1 µM (inactive) | 98.4 µM (inactive) | > 100 µM (inactive) |  | 58.6 µM (inactive) | > 100 µM (inactive) | > 100 µM (inactive) | > 71.4 µM (inactive) | 70 µM (inactive) | > 100 µM (inactive) |
| CC1(C)C2CCC1(C)C(OC(=O)/C=C/C(=O)OC1CC3CCC1(C)C3(C)C)C2 (stereo not drawn) | 72.9 µM (inactive) | > 100 µM (inactive) | > 100 µM (inactive) | 16.9 µM (inactive) | 24.8 µM (inactive) | 63 µM (inactive) | > 100 µM (inactive) | 76.9 µM (inactive) | 19.3 µM (inactive) | 47.9 µM (inactive) | 41 µM (inactive) | > 100 µM (inactive) | > 100 µM (inactive) | 58.9 µM (inactive) | > 100 µM (inactive) | > 100 µM (inactive) |  | 46.1 µM (inactive) | > 100 µM (inactive) |  |
| Cc1cc2c(c(=O)o1)C1=S(SC(c3ccccc3)=C1)S2 (stereo not drawn) | 15 µM (inactive) |  | 36.3 µM (inactive) |  | 20.8 µM (inactive) | 41.2 µM (inactive) | 84.3 µM (inactive) | 45.5 µM (inactive) | 29.6 µM (inactive) | 78.9 µM (inactive) | 37.6 µM (inactive) | 83.4 µM (inactive) | 78.9 µM (inactive) | 20.2 µM (inactive) | 27.3 µM (inactive) | 24.3 µM (inactive) | 23.8 µM (inactive) | 22.5 µM (inactive) | 26.5 µM (inactive) | 30.1 µM (inactive) |
| COc1ccccc1NS(=O)(=O)c1ccc2ncn(NS(=O)(=O)c3ccc(Cl)cc3)c(=O)c2c1 | > 100 µM (inactive) | > 100 µM (inactive) | > 100 µM (inactive) | 85.7 µM (inactive) | > 100 µM (inactive) | 77.3 µM (inactive) | 61.4 µM (inactive) | 5.86 µM (inactive) | > 100 µM (inactive) | > 100 µM (inactive) | > 100 µM (inactive) | > 100 µM (inactive) | 63 µM (inactive) |  | 17.7 µM (inactive) | > 100 µM (inactive) | > 100 µM (inactive) | > 100 µM (inactive) | 35.2 µM (inactive) | > 100 µM (inactive) |
